Columns and labels:
Type in all cases: in vivo
Alopecurus myosuroides = assay: Post-emergence herbicidal efficacy at 80 g/ha, ALOMY; conditions: rated visually after about 3 weeks vs untreated controls, 100% = plants have died
Excerpt: (§1) Unwanted plants/weeds: • ABUTH: Abutilon theophrasti • ALOMY: Alopecurus myosuroides • AMARE: Amaranthus retroflexus • DIGSA: Digitaria sanguinalis • ECHCG: Echinochloa crus-galli • KCHSC: Kochia scoparia • LOLRI: Lolium rigidum • MATIN: Matricaria inodora • POAAN: Poa annua • POLCO: Polygonum convolvulus • SETVI: Setaria viridis • STEME: Stellaria media • VERPE: Veronica persica • VIOTR: Viola tricolor A. Post-Emergence Herbicidal Efficacy at 320 g/ha
(§2) Seeds of monocotyledonous and dicotyledonous weeds and crop plants were placed in sandy loam in plastic or organic planting pots, covered with soil and cultivated in a greenhouse under controlled growth conditions. 2 to 3 weeks after sowing, the test plants were treated at the one-leaf stage. The compounds of the invention, formulated in the form of wettable powders (WP) or as emulsion concentrates (EC), were then sprayed onto the green parts of the plants as aqueous suspension or emulsion with addition of 0.5% additive at a water application rate of 600 l/ha (converted). After the test plants had been kept in the greenhouse under optimum growth conditions for about 3 weeks, the activity of the preparations was rated visually in comparison to untreated controls. For example, 100% activity=the plants have died, 0% activity=like control plants.
(§3) Tables B1 to B11 below show the effects of selected compounds of the general formula (I) according to Table 1 on various harmful plants and an application rate corresponding to 80 g/ha, which were obtained by the experimental procedure mentioned above.

Amaranthus retroflexus [1] = assay: Pre-emergence herbicide efficacy at 320 g/ha, AMARE; conditions: scored visually after about 3 weeks vs untreated controls, 100% = plants have died
In short: (§4)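 Visual scores, given as percent of untreated controls (0% = no effect, 100% = dead plants), were taken about 3 weeks after treatment under greenhouse conditions. Treatment was a pre-emergence soil-surface application of WP or EC formulation at 320 g/ha, made up in 600 L/ha water plus 0.5% additive, over seeds covered in sandy loam.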

Echinochloa crus-galli [2] = assay: Pre-emergence herbicide efficacy at 320 g/ha, ECHCG; conditions: scored visually after about 3 weeks vs untreated controls, 100% = plants have died
In short: as §4

Abutilon theophrasti = assay: Pre-emergence herbicide efficacy at 80 g/ha, ABUTH; conditions: scored visually after about 3 weeks vs untreated controls, 100% = plants have died
Excerpt: as §1
(§5) Seeds of monocotyledonous and dicotyledonous weed plants and crop plants were placed in plastic or organic planting pots and covered with soil. The compounds of the invention, formulated in the form of wettable powders (WP) or as emulsion concentrates (EC), were then applied to the surface of the covering soil as aqueous suspension or emulsion with addition of 0.5% additive at a water application rate equivalent to 600 l/ha. After the treatment, the pots were placed in a greenhouse and kept under good growth conditions for the test plants. After about 3 weeks, the efficacy of the preparations was scored visually in comparison with untreated controls as percentages. For example, 100% activity=the plants have died, 0% activity=like control plants.
(§6) Tables D1 to D12 below show the effects of selected compounds of the general formula (I) according to Table 1 on various harmful plants and an application rate corresponding to 80 g/ha, which were obtained by the experimental procedure mentioned above.

Amaranthus retroflexus [3] = assay: Pre-emergence herbicide efficacy at 80 g/ha, AMARE; conditions: scored visually after about 3 weeks vs untreated controls, 100% = plants have died
In short: (§7)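 Visual % activity scored after roughly 3 weeks in the greenhouse against untreated pots, 100% meaning dead plants and 0% like controls. Treatment was soil-surface application right after sowing, at 80 g/ha. Formulated as WP or EC in water at 600 l/ha with 0.5% additive.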

Echinochloa crus-galli [4] = assay: Post-emergence herbicidal efficacy at 320 g/ha, ECHCG; conditions: rated visually after about 3 weeks vs untreated controls, 100% = plants have died
In short: (§8)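 Visual rating about 3 weeks after treatment, scored against untreated plants on a scale from 0% (no effect) to 100% (dead). Application was foliar, as aqueous WP or EC suspension or emulsion with 0.5% additive at 600 L/ha, on one-leaf-stage greenhouse plants 2–3 weeks old, grown in sandy loam.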

Veronica persica = assay: Pre-emergence herbicide efficacy at 320 g/ha, VERPE; conditions: scored visually after about 3 weeks vs untreated controls, 100% = plants have died
In short: as §4

Setaria viridis [5] = assay: Pre-emergence herbicide efficacy at 320 g/ha, SETVI; conditions: scored visually after about 3 weeks vs untreated controls, 100% = plants have died
In short: as §4

Matricaria inodora = assay: Pre-emergence herbicide efficacy at 320 g/ha, MATIN; conditions: scored visually after about 3 weeks vs untreated controls, 100% = plants have died
In short: as §4

Setaria viridis [6] = assay: Pre-emergence herbicide efficacy at 80 g/ha, SETVI
In short: as §7

Viola tricolor [7] = assay: Pre-emergence herbicide efficacy at 80 g/ha, VIOTR
In short: as §7

Stellaria media = assay: Post-emergence herbicidal efficacy at 320 g/ha, STEME; conditions: rated visually after about 3 weeks vs untreated controls, 100% = plants have died
In short: as §8

Digitaria sanguinalis = assay: Post-emergence herbicidal efficacy at 80 g/ha, DIGSA; conditions: rated visually after about 3 weeks vs untreated controls, 100% = plants have died
Excerpt: as §1, §2, §3

Viola tricolor [8] = assay: Post-emergence herbicidal efficacy at 80 g/ha, VIOTR; conditions: rated visually after about 3 weeks vs untreated controls, 100% = plants have died
Excerpt: as §1, §2, §3

Polygonum convolvulus = assay: Pre-emergence herbicide efficacy at 80 g/ha, POLCO; conditions: scored visually after about 3 weeks vs untreated controls, 100% = plants have died
Excerpt: as §1, §5, §6

Kochia scoparia = assay: Pre-emergence herbicide efficacy at 320 g/ha, KCHSC; conditions: scored visually after about 3 weeks vs untreated controls, 100% = plants have died
In short: as §4

Poa annua = assay: Pre-emergence herbicide efficacy at 320 g/ha, POAAN; conditions: scored visually after about 3 weeks vs untreated controls, 100% = plants have died
In short: as §4

## Fc1cnc(Nc2cccc(F)c2-c2cc(C(F)F)no2)nc1 [Example 1-34]
Alopecurus myosuroides
  Post-emergence efficacy at 80 g/ha against ALOMY in %: 100%
Amaranthus retroflexus [1]
  Pre-emergence efficacy at 320 g/ha against AMARE in %: 100%
Echinochloa crus-galli [2]
  Pre-emergence efficacy at 320 g/ha against ECHCG in %: 100%
Abutilon theophrasti
  Pre-emergence efficacy at 80 g/ha against ABUTH in %: 90%
Amaranthus retroflexus [3]
  Pre-emergence efficacy at 80 g/ha against AMARE in %: 100%
Echinochloa crus-galli [4]
  Post-emergence efficacy at 320 g/ha against ECHCG in %: 100%
Veronica persica
  Pre-emergence efficacy at 320 g/ha against VERPE in %: 100%
Setaria viridis [5]
  Pre-emergence efficacy at 320 g/ha against SETVI in %: 100%
Matricaria inodora
  Pre-emergence efficacy at 320 g/ha against MATIN in %: 100%
Setaria viridis [6]
  Pre-emergence efficacy against SETVI: 100%
Viola tricolor [7]
  Pre-emergence efficacy against VIOTR: 100%
Stellaria media
  Post-emergence efficacy at 320 g/ha against STEME in %: 100%
Digitaria sanguinalis
  Post-emergence efficacy at 80 g/ha against DIGSA in %: 80%
Viola tricolor [8]
  Post-emergence efficacy at 80 g/ha against VIOTR in %: 80%
Polygonum convolvulus
  Pre-emergence efficacy at 80 g/ha against POLCO in %: 90%
Kochia scoparia
  Pre-emergence efficacy at 320 g/ha against KCHSC in %: 100%
Poa annua
  Pre-emergence efficacy at 320 g/ha against POAAN in %: 100%

Reference: US20250311727A1, “SUBSTITUTED 2-AMINOAZINES AND SALTS THEREOF, AND USE THEREOF AS HERBICIDAL ACTIVE SUBSTANCES” (BAYER AKTIENGESELLSCHAFT, priority 2022, published 2025)
